Source: patent US9359378B2, “Substituted oxazolo[3,4-a]pyrazines as pharmaceutcals” (BIOLAB SANUS FARMACÊUTICA LTDA., priority 2014, dated 2016)

Columns and labels:
Assay type in all cases: biochemical
Details in all cases: human recombinant enzyme (Sf9); FIGS. 14 and 15; test concentration not given
PDE8A1 = target: T1, PDE8A1 (Homo sapiens, UniProt O60658); assay: PDE8A1 enzyme inhibition (HTRF, cAMP substrate)
T1 construct: host or cells: Sf9
Description: (§1) The effects of the BL-230 and BL-236 compounds on the activity of the human enzymes PDE2A1, PDE3A, PDE4A1A, PDE4B1, PDE7A, PDE8A1, and PDE10A2 and PDE11A4 were quantified by measuring the production of adenosine 5′-monophosphate (5′AMP) from cyclic adenosine monophosphate (cAMP), with human recombinant enzyme expressed in Sf9 cells and the detection method was by using HTRF®.
(§2) The test compound, the reference compound or water (control) were mixed with the enzyme (the enzymes and their amounts used are described in Table 1) in a buffer containing 44.4 mM Tris-HCl, 5.28 mM MgCl2, 2.64 mM DTT and 0.044% Tween® 20 (pH 7.8). Then, the reaction was initiated by the addition of 40 nM of cAMP substrate and the mixture was incubated for 30 minutes at room temperature. For basal control measurements, the enzyme was omitted from the reaction mixture. The fluorescence acceptor (Dye2 labeled cAMP) and fluorescence donor (anti-cAMP antibody labeled with europium cryptate) were added in the presence of 1 mM IBMX. After 60 minutes, the fluorescence corresponding to the amount of transfer residual cAMP was measured at λex=337 nm, λem=620 nm and λem=665 nm using a microplate reader (RubyStar, BMG). The enzyme activity was determined by the signal division measured at 665 nm, by the measured signal at 620 nm (right). The results were expressed as a inhibition percentage of the control enzyme activity. […]

PDE3B = target: T2, PDE3B (Homo sapiens, UniProt Q13370); assay: PDE3B enzyme inhibition (HTRF, cAMP substrate)
T2 construct: host or cells: Sf9
Protocol: The effects of compounds BL-230 and BL-236 on human PDE3B enzyme activity was quantified by measuring the production of 5′AMP from CAMP using human recombinant enzyme expressed in Sf9 cells and the detection method was by using HTRF®.
The test compound, the reference compound or water (control) were mixed with 0.7 U of the enzyme PDE3B in a buffer containing 50 mM Tris-HCl, 6 mM MgCl2, 3 mM DTT and 0.05% Tween® 20 (pH 7.8). Then, the reaction was initiated by addition of 40 nM of cAMP substrate and the mixture was incubated for 30 minutes at 22° C. For basal control measurements, the enzyme was omitted from the reaction mixture. The fluorescence acceptor (Dye2 labeled cAMP) and fluorescence donor (anti-cAMP antibody labeled with europium cryptate) were added in the presence of 1 mM IBMX. After 60 minutes, the transfer of fluorescence corresponding to the amount of residual cAMP was measured at λex=337 nm, λem=620 nm and λem=665 nm using a microplate reader (RubyStar, BMG). The enzyme activity was determined by the signal division measured at 665 nm, by the signal measured at 620 nm (right). The results were expressed as an inhibition percentage of the control enzyme activity. The standard inhibitory reference compound milrinone was used, which was tested in each experiment at several concentrations to obtain an inhibition curve from which its IC50 value was calculated. […]

PDE4B1 = target: T3, PDE4B1 (Homo sapiens, UniProt Q07343); assay: PDE4B1 enzyme inhibition (HTRF, cAMP substrate)
T3 construct: host or cells: Sf9
Description: as §1, §2

T1 sequence (O60658 whole entry): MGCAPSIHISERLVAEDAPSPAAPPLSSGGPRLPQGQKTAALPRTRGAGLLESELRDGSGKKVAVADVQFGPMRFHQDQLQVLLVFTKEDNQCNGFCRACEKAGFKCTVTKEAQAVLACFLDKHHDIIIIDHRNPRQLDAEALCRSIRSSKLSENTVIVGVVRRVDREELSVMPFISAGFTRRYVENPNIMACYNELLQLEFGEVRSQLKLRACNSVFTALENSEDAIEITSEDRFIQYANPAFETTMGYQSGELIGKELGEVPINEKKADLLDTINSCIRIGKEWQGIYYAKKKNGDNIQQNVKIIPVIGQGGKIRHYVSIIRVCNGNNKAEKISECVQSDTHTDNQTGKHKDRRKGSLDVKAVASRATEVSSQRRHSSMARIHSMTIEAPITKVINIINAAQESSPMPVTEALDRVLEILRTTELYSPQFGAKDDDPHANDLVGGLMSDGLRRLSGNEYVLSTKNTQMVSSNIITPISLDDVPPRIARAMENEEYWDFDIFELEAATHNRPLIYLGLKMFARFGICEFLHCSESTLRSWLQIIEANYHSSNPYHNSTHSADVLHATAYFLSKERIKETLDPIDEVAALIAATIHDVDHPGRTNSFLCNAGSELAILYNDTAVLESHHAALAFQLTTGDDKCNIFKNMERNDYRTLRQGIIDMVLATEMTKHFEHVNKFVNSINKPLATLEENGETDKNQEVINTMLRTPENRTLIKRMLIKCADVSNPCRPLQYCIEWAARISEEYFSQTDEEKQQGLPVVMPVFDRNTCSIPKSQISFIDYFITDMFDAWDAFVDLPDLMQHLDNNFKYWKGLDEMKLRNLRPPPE
T2 sequence (Q13370 whole entry): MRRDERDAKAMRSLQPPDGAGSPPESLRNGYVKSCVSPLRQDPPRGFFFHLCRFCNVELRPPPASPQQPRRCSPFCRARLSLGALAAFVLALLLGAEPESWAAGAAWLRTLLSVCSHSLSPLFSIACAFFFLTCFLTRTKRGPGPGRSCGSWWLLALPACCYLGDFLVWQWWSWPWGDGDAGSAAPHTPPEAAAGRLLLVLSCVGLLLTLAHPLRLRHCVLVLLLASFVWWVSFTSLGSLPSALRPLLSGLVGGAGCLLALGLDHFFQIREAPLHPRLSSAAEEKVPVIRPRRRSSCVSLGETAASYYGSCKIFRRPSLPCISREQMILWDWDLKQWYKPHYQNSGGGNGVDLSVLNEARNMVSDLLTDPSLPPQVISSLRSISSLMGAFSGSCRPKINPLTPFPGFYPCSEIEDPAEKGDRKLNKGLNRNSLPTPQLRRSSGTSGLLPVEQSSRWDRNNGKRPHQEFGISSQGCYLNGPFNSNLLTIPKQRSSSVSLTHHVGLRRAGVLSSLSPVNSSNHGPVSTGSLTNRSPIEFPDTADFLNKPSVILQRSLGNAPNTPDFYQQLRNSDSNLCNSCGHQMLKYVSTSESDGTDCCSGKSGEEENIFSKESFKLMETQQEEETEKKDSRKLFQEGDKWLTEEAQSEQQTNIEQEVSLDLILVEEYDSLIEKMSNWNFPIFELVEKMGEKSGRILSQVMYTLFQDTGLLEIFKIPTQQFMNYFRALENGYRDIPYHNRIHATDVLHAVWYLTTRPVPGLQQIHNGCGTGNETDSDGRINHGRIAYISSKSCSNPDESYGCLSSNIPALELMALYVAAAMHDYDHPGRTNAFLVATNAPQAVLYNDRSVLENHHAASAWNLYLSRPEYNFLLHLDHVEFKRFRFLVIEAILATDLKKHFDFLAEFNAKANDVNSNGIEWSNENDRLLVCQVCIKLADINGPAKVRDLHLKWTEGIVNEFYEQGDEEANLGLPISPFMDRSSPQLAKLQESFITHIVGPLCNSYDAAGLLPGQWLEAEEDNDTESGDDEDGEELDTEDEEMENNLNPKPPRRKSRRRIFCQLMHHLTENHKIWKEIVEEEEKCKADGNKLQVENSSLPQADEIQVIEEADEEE
T3 sequence (Q07343 whole entry): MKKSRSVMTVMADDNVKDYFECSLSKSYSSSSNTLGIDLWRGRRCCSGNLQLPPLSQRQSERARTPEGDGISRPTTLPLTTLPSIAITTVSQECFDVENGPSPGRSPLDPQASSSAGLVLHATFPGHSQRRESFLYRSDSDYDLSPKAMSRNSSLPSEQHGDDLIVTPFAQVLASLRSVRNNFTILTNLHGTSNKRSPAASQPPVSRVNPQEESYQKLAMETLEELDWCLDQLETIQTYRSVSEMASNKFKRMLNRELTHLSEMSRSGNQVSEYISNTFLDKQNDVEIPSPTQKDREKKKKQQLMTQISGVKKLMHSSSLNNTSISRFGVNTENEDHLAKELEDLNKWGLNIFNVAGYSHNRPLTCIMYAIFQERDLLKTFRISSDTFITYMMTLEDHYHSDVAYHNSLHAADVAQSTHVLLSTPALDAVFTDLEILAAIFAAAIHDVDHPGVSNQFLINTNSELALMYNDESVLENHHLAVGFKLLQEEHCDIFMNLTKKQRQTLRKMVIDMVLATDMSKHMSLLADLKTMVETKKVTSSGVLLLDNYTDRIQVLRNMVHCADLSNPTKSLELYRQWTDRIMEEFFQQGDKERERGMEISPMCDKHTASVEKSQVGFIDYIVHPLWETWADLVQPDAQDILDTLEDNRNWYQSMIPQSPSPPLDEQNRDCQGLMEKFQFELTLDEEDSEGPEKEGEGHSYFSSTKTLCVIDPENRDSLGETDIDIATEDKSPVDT

inhibition of PDE8A1 enzyme activity (PDE8A1)	inhibition of PDE3B enzyme activity (PDE3B)	inhibition of PDE4B1 enzyme activity (PDE4B1)	Structure (SMILES)
did not inhibit	did not inhibit	did not inhibit	O=C1C2=C(c3c[nH]c4ccccc34)OC(c3ccc4c(c3)OCO4)N2C(=O)CN1CCO (stereo not drawn) [BL-230, 3-(benzo[d][1,3]dioxol-5yl)-7-(2-hydroxyethyl)-1-(1H-indol-3-yl)-6,7-dihydro-3H-oxazolo[3,4-a]pyrazine-5,8-dione]
did not inhibit	did not inhibit	did not inhibit	C[C@@H](CO)N1CC(=O)N2C(=C(c3c[nH]c4ccccc34)OC2c2ccc3c(c2)OCO3)C1=O (stereo partly drawn) [BL-236, 3-(benzo[d][1,3]dioxol-5yl)-7-((S)1-hydroxypropan-2yl)-1-(1H-indol-3-yl)-6,7-dihydro-3H-oxazolo[3,4-a]pyrazine-5,8-dione]
